Values quoted from earlier work as cited in patent US5010056A, “Pharmaceutical composition for intranasal administration, comprising GH-releasing hormone, a cholinergic agonist and optionally a bile salt” (priority 1987, dated 1991).
Where two headings read alike, the source gives them in different places.

Tests used:
[1] = orally administered
[2] = test system: GH secretion; conditions: previous administration of an oral dose

| Compound | bioavailability [1] | effect on GH secretion and on the effect of intravenously injected GHRH [2] | bioavailability (nasal administration) | doses required nasally to obtain comparable effects, relative to parenteral doses (nasal versus parenteral administration) |
| --- | --- | --- | --- | --- |
| CN(C)C(=O)Oc1ccc[n+](C)c1 [pyridostigmine] | low | able to stimulate GH secretion and significantly increase the effect of intravenously injected GHRH | – | – |
| GH-releasing hormone [GHRH] | – | – | low | 300-1000 times the parenteral doses |
